Assay results reported in patent US5523223A, “Ketoester reductase for conversion of keto acid esters to optically active hydroxy acid esters” (priority 1992, dated 1996).
pKi: −log10 of the molar value. Read-outs that look alike come from different tables or passages of the source.

Experiments:
[1] = system: KERed from C. parapsilosis; experiment: Substrate spectrum of the KERed; assay type: biochemical, Candida parapsilosis; settings: for Rel. Activity: substrate 8 mM, activity with 5-oxo-hexanoic acid ethyl ester = 100%, NADH 0.2 mM, pH 7.9; for Acceptance as substrate by the KERed (in words): reduction with NADH
Method: (§1) For the following investigation, partially purified enzyme (after Q-sepharose chromatography, 67-times enrichment) was used. […]
5-oxohexanoic acid ethyl ester […]
Corresponding to example 3.B, instead of 5-oxohexanoic acid ethyl ester a series of aromatic and aliphatic ketoesters, ketoacids, ketones, diketones and aldehydes were investigated as to whether they could be reduced enzymatically. For this the compounds were added always in 8 mM final concentration. […] The activity with 5-oxo-hexanoic acid ethyl ester was arbitrarily selected as 100%.

[2] = system: KERed from C. parapsilosis; experiment: Inhibition study of the KERed (influence of metal cations and reagents); assay type: biochemical, Candida parapsilosis; settings: for Influence on KERed activity (in words): summary statements of the inhibition study
Source text: as §1
5-oxohexanoic acid ethyl ester
TEA-NaOH-buffer, 0.1 M; pH 7.9
The influence of various metal cations and reagents upon the enzymatic activity was investigated in tests in which the test preparation described under example 3.B was used.

[3] = system: KERed from Candida parapsilosis; experiment: Kinetic characterization of the KERed; assay type: biochemical
[4] = compound 0.1 mM, 35 mM 5-oxohexanoic acid ethyl ester, 0.2 mM NADH, pH 7.9
[5] = compound 1.0 mM, 35 mM 5-oxohexanoic acid ethyl ester, 0.2 mM NADH, pH 7.9
[6] = referred to 2-butanone, partially purified enzyme

`COC(=O)CC(C)=O` was tested, and the “Rel. Activity” value [1] was 67%.
In the case of `CCOC(=O)CCCC(C)=O`, the “Rel. Activity” value [1] was 100%.
For `CC(=O)CCCC(=O)O`, the “Rel. Activity” value [1] was 0%.
For `CCC(=O)CC(=O)OC`, the “Rel. Activity” value [1] was 18%.
For `CCOC(=O)CC(=O)C(C)C`, the “Rel. Activity” value [1] was 24%.
`CCOC(=O)CC(=O)c1ccccc1` was tested, and the “Rel. Activity” value [1] was 0%.
`CCOC(=O)C(C)C(C)=O` (stereo not shown) was tested, and the “Rel. Activity” value [1] was 70%.
With `CC(=O)CCC(C)=O` the “Rel. Activity” value [1] was 46%.
In the case of `O=C1Nc2ccccc2C1=O`, the “Rel. Activity” value [1] was 0%.
For `O=C1CCCC(=O)C1`, the “Rel. Activity” value [1] was 0%.
`CC1CCC(=O)CC1` was tested, and the “Rel. Activity” value [1] was 40%.
For `CC1CCCCC1=O` (stereo not shown), the “Rel. Activity” value [1] was 12%.
In the case of `CCOC(=O)C1CCCCC1=O` (stereo not shown), the “Rel. Activity” value [1] was 16%.
`CC(=O)c1ccccc1Cl` was tested, and the “Rel. Activity” value [1] was 0%.
`CC(=O)C(C)C` was tested, and the “Rel. Activity” value [1] was 28%.
With `CC(=O)C(C)(C)O` the “Rel. Activity” value [1] was 0%.
In the case of `COC(CC(C)=O)OC`, the “Rel. Activity” value [1] was 14%.
`O=CC1CCCCC1` was tested, and the “Rel. Activity” value [1] was 29%.
In the case of `O[C@@H](CS)[C@@H](O)CS` (racemic) [1,4-Dithiothreitol], the “Residual Activity” value [2, 4] was 100%, the “Residual Activity” value [2, 5] was 100% and the “Influence on KERed activity (in words)” value [2] was “Stabilization”.
`CC(=O)C(Cl)Cl` [1,1-Dichloroacetone] was tested, and the Km ([3]; partially purified enzyme) was 176 µM, the Vmax [3, 6] was 45% and the “Acceptance as substrate by the KERed (in words)” value (from here on “Acceptance as substrate”) [1] was “acceptable as substrates”.
`CCCCO` [1-butanol] gave a Km ([3]; partially purified enzyme) of 2900 µM and a Vmax [3, 6] of 47%.
For `CCCO` [1-propanol], the Km ([3]; partially purified enzyme) was 3800 µM and the Vmax [3, 6] was 47%.
`c1ccc(-c2ccccn2)nc1` [2,2'-bipyridyl] was tested, and the “Residual Activity” value ([2]; 2,2'-bipyridyl 0.05 mM) was 52%, the “Residual Activity” value ([2]; 2,2'-bipyridyl 0.5 mM) was 23% and the “Influence on KERed activity (in words)” value [2] was “Strong inhibition”.
In the case of `CCC(=O)CC(C)=O` [2,4-hexanedione], the “Acceptance as substrate” value [1] was “acceptable as substrates”.
For `CC(=O)CC(C)=O` [2,4-pentanedione], the “Acceptance as substrate” value [1] was “acceptable as substrates”.
With `CCC(C)=O` [2-Butanone] the Km ([3]; partially purified enzyme) was 1480 µM, the “Vmax of the reference substrate” value ([3]; partially purified enzyme) was 6 U mg and the Vmax [3, 6] was 100%. For the same compound, the “Acceptance as substrate” value [1] was “acceptable as substrates”.
`CCCCCCCCC(C)=O` [2-decanone] was tested, and the Km ([3]; partially purified enzyme) was 3960 µM and the Vmax [3, 6] was 20%.
`CCCCCC(C)=O` [2-heptanone] showed a Km ([3]; partially purified enzyme) of 97 µM and a Vmax [3, 6] of 58%.
Work on `CCCCC(C)=O` [2-hexanone] yielded a Km ([3]; partially purified enzyme) of 54 µM and a Vmax [3, 6] of 53%.
For `CCC(=O)C(C)C` [2-methyl-3-pentanone], the “Acceptance as substrate” value [1] was “acceptable as substrates”.
Work on `CCCCCCCC(C)=O` [2-nonanone] yielded a Km ([3]; partially purified enzyme) of 314 µM, a Vmax [3, 6] of 45% and a pKi ([3]; substrate inhibition observed, read-out: Kis (substrate inhibition)) of 1.60.
For `CCCCCCC(C)=O` [2-octanone], the Km ([3]; partially purified enzyme) was 324 µM, the Vmax [3, 6] was 62% and the “Acceptance as substrate” value [1] was “acceptable as substrates”.
`CCCC(C)=O` [2-pentanone] was tested, and the Km ([3]; partially purified enzyme) was 141 µM, the Vmax [3, 6] was 62% and the “Acceptance as substrate” value [1] was “acceptable as substrates”.
Compound `CC(C)O` [2-propanol] has a Km ([3]; partially purified enzyme) of 2210 µM and a Vmax [3, 6] of 183%.
In the case of `CC(=O)C(C)Cl` (stereo not shown) [3-chloro-2-butanone], the Km ([3]; partially purified enzyme) was 442 µM, the Vmax [3, 6] was 50% and the “Acceptance as substrate” value [1] was “acceptable as substrates”.
With `CC(=O)c1cccc(Cl)c1` [3-chloro-aceto-phenone] the Km ([3]; partially purified enzyme) was 15 µM, the Vmax [3, 6] was 32% and the “Acceptance as substrate” value [1] was “acceptable as substrates”.
`CCCCC(=O)CC` [3-heptanone] was tested, and the Km ([3]; partially purified enzyme) was 5600 µM and the Vmax [3, 6] was 11%.
With `CCCC(=O)CC` [3-hexanone] the Km ([3]; partially purified enzyme) was 840 µM and the Vmax [3, 6] was 10%.
Work on `CCCCCC(=O)CC` [3-octanone] yielded a Km ([3]; partially purified enzyme) of 11200 µM and a Vmax [3, 6] of 12%.
`CC(=O)c1ccc(Br)cc1` [4-bromoacetophenone] was tested, and the “Acceptance as substrate” value [1] was “acceptable as substrates”.
`CC(=O)c1ccc(Cl)cc1` [4-chloro-acetophenone] was tested, and the Km ([3]; partially purified enzyme) was 10 µM and the Vmax [3, 6] was 19%.
`CC(=O)c1ccc(F)cc1` [4-fluoroacetophenone] was tested, and the “Acceptance as substrate” value [1] was “acceptable as substrates”.
In the case of `CCCC(=O)CCC` [4-heptanone], the Km ([3]; partially purified enzyme) was 5300 µM and the Vmax [3, 6] was 9%.
`CC[C@H](C)O` [(S)-2-butanol] was tested, and the Km [3] was 600 µM and the Vmax [3] was 210%.
`CC=O` [Acetaldehyde] was tested, and the Km ([3]; partially purified enzyme) was 85 µM, the Vmax [3, 6] was 129% and the “Acceptance as substrate” value [1] was “acceptable as substrates”.
Work on `CC(C)=O` [Acetone] yielded a Km [3] of 1060 µM and a Vmax [3, 6] of 97%.
In the case of `CC(=O)c1ccccc1` [Acetophenone], the Km ([3]; partially purified enzyme) was 49 µM, the Vmax [3, 6] was 22% and the “Acceptance as substrate” value [1] was “acceptable as substrates”.
With `[Ag+]` [Ag^+] the “Residual Activity” value [2, 4] was 0%, the “Residual Activity” value [2, 5] was 0% and the “Influence on KERed activity (in words)” value [2] was “Rapid deactivation”.
For `[Ca+2]` [Ca^2+], the “Residual Activity” value [2, 4] was 78% and the “Residual Activity” value [2, 5] was 68%.
